T1: alpha-amidating enzyme (Rattus norvegicus, UniProt P14925)
T1 sequence (P14925 36-976): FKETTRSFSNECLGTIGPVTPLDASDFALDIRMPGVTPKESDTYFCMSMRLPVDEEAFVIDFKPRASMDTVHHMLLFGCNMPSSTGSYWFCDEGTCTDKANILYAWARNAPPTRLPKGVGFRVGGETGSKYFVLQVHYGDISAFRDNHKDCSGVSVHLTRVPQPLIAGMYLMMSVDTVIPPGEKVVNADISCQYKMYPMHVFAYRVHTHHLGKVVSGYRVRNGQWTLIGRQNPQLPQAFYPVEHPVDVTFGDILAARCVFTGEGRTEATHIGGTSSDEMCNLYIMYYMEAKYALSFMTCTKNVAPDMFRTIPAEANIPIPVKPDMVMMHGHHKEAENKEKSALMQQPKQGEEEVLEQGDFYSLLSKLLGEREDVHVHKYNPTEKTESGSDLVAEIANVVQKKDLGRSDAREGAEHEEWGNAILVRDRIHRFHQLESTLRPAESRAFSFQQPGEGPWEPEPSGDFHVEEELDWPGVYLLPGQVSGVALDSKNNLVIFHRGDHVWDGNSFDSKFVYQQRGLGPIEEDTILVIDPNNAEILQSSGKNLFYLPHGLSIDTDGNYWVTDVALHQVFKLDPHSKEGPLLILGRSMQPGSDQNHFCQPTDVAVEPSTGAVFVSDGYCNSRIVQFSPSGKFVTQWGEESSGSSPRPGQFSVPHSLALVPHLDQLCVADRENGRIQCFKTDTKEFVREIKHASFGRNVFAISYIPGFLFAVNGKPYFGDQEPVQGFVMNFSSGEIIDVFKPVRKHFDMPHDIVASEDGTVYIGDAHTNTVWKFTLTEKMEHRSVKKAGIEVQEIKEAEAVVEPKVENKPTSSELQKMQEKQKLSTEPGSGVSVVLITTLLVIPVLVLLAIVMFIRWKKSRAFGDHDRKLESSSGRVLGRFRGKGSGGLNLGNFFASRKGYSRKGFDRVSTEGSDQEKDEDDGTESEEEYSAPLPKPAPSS


Key:
alpha-amidating enzyme [1] = molecular target: T1, alpha-amidating enzyme; assay: comparison of assay systems / kinetic analysis of amidation of dansyl-Tyr-Val-Gly, D-Tyr-Val-Gly and 125I-D-Tyr-Val-Gly; format: biochemical
Description: I. Monodansyl L-Tyr-Val-Gly
The concentration of enzyme used in all experiments was left constant except where noted.
The reaction mixture for the conversion of the monodansyl substrate contained:
5 μl of 100 ug/mL bovine pancreatic catalase
5 μl containing 2 nmoles of substrate
The samples were prepared in duplicate and incubated at 37° C. for 10, 20 and 30 minutes time periods. The enzymatic reaction was halted by the addition of 10 ul 500 mM EDTA. Substrate and product were separated by RP HPLC using an Hewlett Packard-1090 liquid chromatography system, and quantitation was achieved using a HP-3392 integrator.
D-Tyr-Val-Gly and D-Tyr-Val-NH2 were iodinated using iodobeads from Pierce Chemical Company. The radiolabeied substrate and product were used to calibrate a sulfyl-propyl cation-exchange column. ^125 I D-Tyr-Val-Gly was added to 650 uM D-Tyr-Val-Gly and used as the substrate. The reaction mixture for the conversion of monodansyl substrate contained:
Samples were incubated for 10, 20, 30 minutes at 37° C. The reaction was stopped by addition of 500 mM EDTA. […] The conversion of radiolabeled substrate to product was linear with respect to time.
The reaction conditions used for the amidation of D-Tyr-Val-Gly are identical to those described for the dansyl and iodinated substrates. Substrate concentration in the reaction mixture was 650 uM. Separation of substrate and product is achieved by gradient elution on RP-HPLC using a HP-1090 liquid chromatography system. The column effluents were monitored at 280 nm. The level of sensitivity for this assay is much lower than that for either dansyl or iodinated substrates.
Furthermore, a somewhat more rigorous kinetic analysis has also been employed to compare the dansyl-Tyr-Val-Gly (Applicants') assay to the D-Tyr-Val-Gly (prior art) assay.

alpha-amidating enzyme [2] = molecular target: T1, alpha-amidating enzyme; assay: kinetic studies of alpha-amidating enzyme with monodansyl L-Tyr-Val-Gly; format: biochemical; settings: pH 7.0, 37° C.
Excerpt: These assays incorporate the use of synthetic tripeptide substrates. Amidation of these substrates is conveniently monitored by separation and quantification of the product ([…] and substrate tripeptide) using HPLC. The most sensitive of the assays developed utilizes monodansyl L-Tyr-Val-Gly as substrate. This compound can be detected at extremely low levels because the dansyl group is fluorescent.
In particular, the kinetic parameters Km and Vmax have been determined by examination of the effect of variation of substrate concentration upon enzymatic activity. […] The smaller the Km the greater the affinity. Vmax is the maximum velocity at which the enzyme will convert the substrate to product and is observed at saturating concentrations of substrate (i.e., the substrate is present in large excess over the enzyme).
In a typical amidation enzyme assay, the reation system (50 ul) would comprise enzyme (approximately 7 μg), dansyl L-Tyr-Val-Gly (up to 40 μM), L-ascorbic acid (3 mM), catalase (0 to 100 μg ml^-1), and copper sulfate (0 to 2 uM) in 60 mM TES buffer at pH 7.0. The reaction is initiated at 37° C. by the addition of enzyme and terminated after a defined period of time by the addition of 0.1 M EDTA (final concentration), which binds up copper making it unavailable for the enzyme.

Row | Km (alpha-amidating enzyme [1]) | Vmax (alpha-amidating enzyme [1]) | Km (alpha-amidating enzyme [2]; regardless of the state of purification of the enzyme) | Molecule | Vmax (alpha-amidating enzyme [2]; dansyl L-Tyr-Val-Gly, pure tumor enzyme)
1 | 1.7 µM | 21 pmol product/min/μl | 1 to 2 µM | monodansyl L-Tyr-Val-Gly [Dansyl-Tyr-Val-Gly] | 
2 |  |  |  | pure tumor enzyme: pure alpha-amidating enzyme from tumor (protein, UniProt P14925 36-976, looked up) Peptidylglycine …: FKETTRSFSNECLGTIGPVTPLDASDFALDIRMPGVTPKESDTYFCMSMRLPVDEEAFVIDFKPRASMDTVHHMLLFGCNMPSSTGSYWFCDEGTCTDKANILYAWARNAPPTRLPKGVGFRVGGETGSKYFVLQVHYGDISAFRDNHKDCSGVSVHLTRVPQPLIAGMYLMMSVDTVIPPGEKVVNADISCQYKMYPMHVFAYRVHTHHLGKVVSGYRVRNGQWTLIGRQNPQLPQAFYPVEHPVDVTFGDILAARCVFTGEGRTEATHIGGTSSDEMCNLYIMYYMEAKYALSFMTCTKNVAPDMFRTIPAEANIPIPVKPDMVMMHGHHKEAENKEKSALMQQPKQGEEEVLEQGDFYSLLSKLLGEREDVHVHKYNPTEKTESGSDLVAEIANVVQKKDLGRSDAREGAEHEEWGNAILVRDRIHRFHQLESTLRPAESRAFSFQQPGEGPWEPEPSGDFHVEEELDWPGVYLLPGQVSGVALDSKNNLVIFHRGDHVWDGNSFDSKFVYQQRGLGPIEEDTILVIDPNNAEILQSSGKNLFYLPHGLSIDTDGNYWVTDVALHQVFKLDPHSKEGPLLILGRSMQPGSDQNHFCQPTDVAVEPSTGAVFVSDGYCNSRIVQFSPSGKFVTQWGEESSGSSPRPGQFSVPHSLALVPHLDQLCVADRENGRIQCFKTDTKEFVREIKHASFGRNVFAISYIPGFLFAVNGKPYFGDQEPVQGFVMNFSSGEIIDVFKPVRKHFDMPHDIVASEDGTVYIGDAHTNTVWKFTLTEKMEHRSVKKAGIEVQEIKEAEAVVEPKVENKPTSSELQKMQEKQKLSTEPGSGVSVVLITTLLVIPVLVLLAIVMFIRWKKSRAFGDHDRKLESSSGRVLGRFRGKGSGGLNLGNFFASRKGYSRKGFDRVSTEGSDQEKDEDDGTESEEEYSAPLPKPAPSS | about 5000 nmol product formed per mg protein

Source: patent publication US6319685A (Unigene Laboratories, Inc., priority 1987, dated 2001)
